Assay results as given in patent publication US8420852B2, “Phospholipase A2 inhibitors and their use in treating neurological injury and disease” (The Regents of the University of California, priority 2007, dated 2013).
“Also recorded” adds a separate entry of the source.

Assays:
human cPLA2 (GIVA) = biological target: T1, human cPLA2 (GIVA) (Homo sapiens, UniProt P47712); test: cPLA2 (GIVA) specific mixed micelle assay; type: biochemical; conditions: at 0.091 mol fraction
T1 sequence (P47712 1-749): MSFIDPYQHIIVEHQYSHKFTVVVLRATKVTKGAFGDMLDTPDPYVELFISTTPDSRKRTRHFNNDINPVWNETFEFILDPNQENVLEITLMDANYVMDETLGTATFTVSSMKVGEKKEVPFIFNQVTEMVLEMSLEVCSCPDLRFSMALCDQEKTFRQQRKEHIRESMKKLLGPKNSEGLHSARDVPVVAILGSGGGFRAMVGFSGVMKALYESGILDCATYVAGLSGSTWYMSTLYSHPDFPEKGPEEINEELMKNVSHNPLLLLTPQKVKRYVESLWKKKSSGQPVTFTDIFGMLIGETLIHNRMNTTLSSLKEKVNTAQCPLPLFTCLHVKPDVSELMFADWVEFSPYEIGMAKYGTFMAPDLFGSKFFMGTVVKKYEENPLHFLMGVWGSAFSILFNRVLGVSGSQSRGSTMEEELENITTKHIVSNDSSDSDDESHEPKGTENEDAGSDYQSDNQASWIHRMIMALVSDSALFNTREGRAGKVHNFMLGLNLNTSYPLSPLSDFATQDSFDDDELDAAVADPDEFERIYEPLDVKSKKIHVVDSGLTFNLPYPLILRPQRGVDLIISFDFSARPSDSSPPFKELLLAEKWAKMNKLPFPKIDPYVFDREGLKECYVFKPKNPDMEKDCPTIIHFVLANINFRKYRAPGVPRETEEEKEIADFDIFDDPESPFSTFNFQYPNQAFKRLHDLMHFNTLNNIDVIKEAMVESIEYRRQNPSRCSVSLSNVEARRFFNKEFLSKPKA
Procedure: (§1) The compounds described herein were tested for inhibition of PLA2s in in vitro assay systems. The data, summarized in the Examples, are represented as XI(50) values unless otherwise noted. XI(50) is defined as the inhibitor concentration that produced 50% inhibition. XI(50) is used as opposed to the more common IC50 because GIVA and GVIA PLA2 are active at a two-dimensional lipid interface rather than in three-dimensional solution. (Deems, Anal. Biochem., 287:1-16, 2000).
(§2) For the groups that received delayed treatment after symptoms occurred, mice were treated with daily intraperitoneal injections of AX059 starting from the first day of clinical symptoms, beginning on day 11; and AX115 starting from the first day of clinical peak (i.e., score 4), beginning of day 14. All inhibitors were administered for 2 weeks. The selectivity of the compounds for the different PLA2s is shown as the percentage inhibition in Table 1. The XI(50) is the mole fraction of the inhibitor in the total substrate interface required to inhibit the enzyme by 50%.
(§3) Compound AX115 was tested for its ability to inhibit human cPLA2 (GIVA) in a cPLA2 (GIVA) specific assay that uses mixed micelles of the substrate 1-palmitoyl-2-arachidonyl phosphatidylcholine and the detergent Triton X-100 (97:3) containing phosphatidylinositol 4,5-bisphosphate (400 μM) as previously described. […]

iPLA2 (GVIA) = biological target: T2, iPLA2 (GVIA) (Homo sapiens, UniProt O60733); test: standard iPLA2 (GVIA) activity assay, DPPC/Triton X-100 mixed micelles; type: biochemical; conditions: at 0.091 mol fraction
T2 sequence (O60733 1-806): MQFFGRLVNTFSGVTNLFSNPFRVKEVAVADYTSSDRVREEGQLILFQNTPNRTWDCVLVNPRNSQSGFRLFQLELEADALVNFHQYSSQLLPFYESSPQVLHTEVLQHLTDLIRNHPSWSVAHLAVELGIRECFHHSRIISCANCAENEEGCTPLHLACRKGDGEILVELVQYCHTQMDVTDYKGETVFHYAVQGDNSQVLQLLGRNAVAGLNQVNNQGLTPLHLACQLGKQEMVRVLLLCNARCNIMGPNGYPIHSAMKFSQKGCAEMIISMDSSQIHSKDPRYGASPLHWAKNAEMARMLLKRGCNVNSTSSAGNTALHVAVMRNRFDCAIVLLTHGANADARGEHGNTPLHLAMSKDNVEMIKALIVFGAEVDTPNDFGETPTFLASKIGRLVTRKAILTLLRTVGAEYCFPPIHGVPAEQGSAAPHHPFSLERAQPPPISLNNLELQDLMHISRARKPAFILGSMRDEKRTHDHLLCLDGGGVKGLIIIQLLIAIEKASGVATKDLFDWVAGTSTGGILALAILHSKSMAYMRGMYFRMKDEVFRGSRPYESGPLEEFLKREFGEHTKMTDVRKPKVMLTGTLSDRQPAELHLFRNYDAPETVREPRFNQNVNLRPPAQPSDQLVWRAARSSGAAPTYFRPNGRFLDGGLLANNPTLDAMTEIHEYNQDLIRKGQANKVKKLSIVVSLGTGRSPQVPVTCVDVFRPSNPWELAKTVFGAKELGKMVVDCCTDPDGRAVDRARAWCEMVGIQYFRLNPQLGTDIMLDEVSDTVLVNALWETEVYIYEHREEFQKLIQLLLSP
Procedure: as §1, §2, §3

[1] = system: BALB/c mice with spinal cord contusion; test: spinal cord contusion (SCI) model, locomotor recovery and histology; type: in vivo, mouse
[2] = system: SJL/J mice induced with EAE; test: EAE model of multiple sclerosis, clinical score; type: in vivo, mouse

## CCCCCCCCCCCCCCC(=O)C(=O)NCC(=O)OC [AX115]
Human cPLA2 (GIVA)
  Inhibition cPLA2 GIVA: 62%
iPLA2 (GVIA)
  Inhibition iPLA2GIVA: 45%
[1]; 300 to 1000 μm rostral and caudal to lesion epicenter, 28 dpi, vs vehicle
  neuron survival in ventral horn (cresyl violet): significantly greater neuron survival; also recorded: significantly better survival of ventral horn neurons; also recorded: greater number of neuronal profiles
[1]; 1000 μm caudal to lesion epicenter, 28 dpi, vs vehicle
  serotonergic innervation: significantly greater serotonergic innervation; also recorded: marked increase of serotonergic fibers
[1]; 28 days after SCI, vehicle 4.6, 9-point scale
  BMS score: 6.6
[1]; daily i.p. 6.85 mg/kg from 1 h after contusion for 14 days, significant from 5 dpi, 6.85 mg/kg
  locomotor function (BMS scores) vs vehicle treated injured mice: marked improvement in the BMS scores; also recorded: markedly improved locomotor function
[1]; epicenter and 300 μm rostral and caudal, 28 dpi, vs vehicle
  myelin loss (Luxol fast blue): marked reduction of myelin loss
[1]; lesion epicenter and adjacent regions, 28 dpi, vs vehicle
  tissue sparing (GFAP staining): significant amount of tissue sparing; also recorded: significant tissue protection; also recorded: marked reduction in tissue loss
[1]; vs vehicle
  improvement in BMS subscores (fine locomotor control): 4 points
  increase in the density of 5-HT fibers within the lateral funiculi and ventral horns: 3 fold
[2]; delayed treatment from peak of first attack, did not differ from vehicle
  mean maximal peak clinical grade at day 17: ~3
[2]; delayed treatment from peak of first attack, vehicle 2.3
  clinical score on day 35: 2.8
[2]; delayed treatment from peak of first attack, vehicle about 1.4
  clinical score on day 23: 2.5
[2]; delayed treatment from peak of first clinical attack (day 14), daily i.p.
  clinical course of EAE vs vehicle control: prevents remission of the disease; also recorded: remission was prevented; also recorded: worsened the disease
[2]; treatment before onset of symptoms, from day 5/6 after immunization, daily for 3 weeks
  clinical course of EAE vs vehicle control: no statistical significance; also recorded: did not differ from vehicle treated control mice; also recorded: did not substantially differ from vehicle treated controls
